Data published in patent US20260294874A1, “COMPOSITIONS COMPRISING MODULATORS OF RIBONUCLEOPROTEIN GRANULE FORMATION AND DISSOLUTION AND METHODS OF USE THEREOF” (University of Virginia Patent Foundation, priority 2023, published 2026).
“Also recorded” adds a separate entry of the source.

Assays:
Format in all cases: cell-based
EDC3 Y475 = target: T1, EDC3 Y475 (Homo sapiens, UniProt Q96F86); assay: Competitive ABPP SILAC LC-MS/MS chemical proteomics, EDC3 Y475; conditions: glucose-deprived HEK293T cells, 25 μM, 2 h
T1 sequence (Q96F86 1-508): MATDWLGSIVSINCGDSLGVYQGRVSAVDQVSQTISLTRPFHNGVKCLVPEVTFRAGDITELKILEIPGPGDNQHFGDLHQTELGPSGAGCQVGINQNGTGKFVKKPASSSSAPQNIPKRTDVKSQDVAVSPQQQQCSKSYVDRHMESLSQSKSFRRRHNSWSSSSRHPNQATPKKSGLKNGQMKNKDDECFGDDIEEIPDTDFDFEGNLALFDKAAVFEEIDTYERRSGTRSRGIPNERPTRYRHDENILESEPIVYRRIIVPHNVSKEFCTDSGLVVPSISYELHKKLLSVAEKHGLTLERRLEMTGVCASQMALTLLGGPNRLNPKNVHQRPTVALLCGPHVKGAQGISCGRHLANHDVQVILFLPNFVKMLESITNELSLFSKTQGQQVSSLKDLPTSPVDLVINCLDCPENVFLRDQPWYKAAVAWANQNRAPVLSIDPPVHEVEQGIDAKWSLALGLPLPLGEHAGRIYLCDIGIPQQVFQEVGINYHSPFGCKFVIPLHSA
Experimental: (§1) Preparation of SILAC proteomes for LC-MS/MS analysis. SILAC cell proteomes were fractionated to collect the supernatant and normalized to 2.3 mg/mL in PBS. ‘Heavy’ and ‘light’ proteomes were aliquoted (427 μL) and probe-modified proteins were conjugated to desthiobiotin-PEG-3-azide using copper-catalyze azide-alkyne cycloaddition, trypsinized into peptides using Trypsin/Lys-C Mix (Catalog No. V5071; Promega Corporation, Madison, Wisconsin, United States of America), enriched using PIERCE™ Avidin Agarose brand beads (Catalog No. 20219; Thermo Fisher Scientific Inc., Waltham, Massachusetts. United States of America), and prepared for nano-electrospray ionization-LC-MS/MS analysis as previously described in Hahm et al., 2020.
(§2) Data Analysis—Chemical Proteomics. Identification and analysis of peptides and proteins using LC-MS was accomplished using bioinformatics software and quality control parameter protocols as previously described in Hahm et al., 2020.
We performed quantitative liquid-chromatography tandem mass spectrometry (LC-MS/MS) chemical proteomic studies to identify the target protein and binding site(s) of SuTEx fragments with RNP granule modulating activity. […] SILAC light and heavy cells (HEK293T and HeLa) were treated with experimental conditions used for phenotypic screening including the SuTEx ligand pretreatment (25 μM, 2 h) followed by PB (glucose-deprivation, 15 min) and SG induction (75 μM [COMPOUND LEFT OUT], 30 min). Afterwards, cells were lysed, soluble proteomes treated with HHS-465 SuTEx probe (100 μM, 1 h), a global Tyr/Lys-reactive probe used previously for RNP granule investigations (Ciancone et al., 2022), and samples processed to probe-modified peptides for LC-MS/MS analysis as previously reported (Huang et al., 2021), shown in FIG. 10.
(§3) We detected ~8,700 probe-modified sites (Tyr and Lys) in our aggregate HeLa and HEK293T chemical proteomic analyses. […]

[1] = test system: G3BP1 Y40E-rescued G3BP KO cells; assay: SG formation in G3BP KO U20S cells rescued with G3BP1 Y40E; conditions: 25 μM, 2 h
Experimental: (§4) G3BP KO and rescue studies. U20S G3BP1/2 double knockout (G3BP KO) cell-line was a kind gift from the C. Brangwynne lab (Princeton University, Princeton, New Jersey, United States of America) and generated as previously described in Kedersha et al., 2016. G3BP KO cells were seeded at 9.0×10^4 in a 24-well plate with 12-mm glass coverslips. Next day, the cells were transfected with […] vectors with 1 μg/mL tetracycline and LIPOFECTAMINE™ 3000 brand transfection reagent according to the manufacturer's protocol (Thermo Fisher Scientific). 20 hours post-transfection, the cells were treated with 25 μM SuTEx probes for 2 hours in DMEM medium without FBS. The cells were then treated with 75 μM NaAsO2 for 30 minutes and fixed with 3% paraformaldehyde in PBS for 15 minutes at RT and washed with PBS twice. The same protocols for IF of HeLa cells and quantification of G3BP1-positive SGs described above were followed thereafter.
(§5) To determine whether the cell biological effects mediated by HHS-166 were Y40-dependent, we expressed recombinant G3BP1 WT or Y40 mutant in previously established G3BP1/2 double knockout U20S (G3BP KO) cells (Kedersha et al., 2016; Sanders et al., 2020) and evaluated the resulting effects on SG response to [COMPOUND LEFT OUT]. […]

HNRPK Y72 = target: T2, HNRPK Y72 (Homo sapiens, UniProt P61978); assay: Competitive ABPP SILAC LC-MS/MS chemical proteomics, HNRPK Y72
T2 construct: liganded site Y72
Experimental: as §1, §2
We performed quantitative liquid-chromatography tandem mass spectrometry (LC-MS/MS) chemical proteomic studies to identify the target protein and binding site(s) of SuTEx fragments with RNP granule modulating activity. […]
as §3

[2] = test system: G3BP1 Y40F-expressing G3BP KO cells; assay: SG formation in G3BP KO U20S cells rescued with G3BP1 Y40F; conditions: 25 μM, 2 h
Experimental: as §4, §5

| SMILES | liganding of EDC3 Y475 (in words) (EDC3 Y475) | SILAC ratio (SR), EDC3 Y475 (EDC3 Y475; HHS-465 100 μM, DMSO (light)/ligand (heavy)) | effect on SG formation (in words) [1] | liganding of HNRPK Y72 (in words) (HNRPK Y72) | effect on SG formation (in words) [2] |
| --- | --- | --- | --- | --- | --- |
| COc1ccc(S(=O)(=O)n2cc(CS(C)(=O)=O)nn2)cc1 [AHL-030, 1-((4-Methoxyphenyl)sulfonyl)-4-((methylsulfonyl)methyl)-1H-1,2,3-triazole] | localized AHL-030 site of binding to Y475; also recorded: liganded site (Y475) | > 2 |  |  |  |
| COc1ccc(S(=O)(=O)n2cc(C3CCCCC3)nn2)cc1 [HHS-166, 4-Cyclohexyl-1-((4-methoxyphenyl)sulfonyl)-111-1,2,3-triazole] |  |  | insensitive to HHS-166 treatment and lost and not Y40E- | not | lost |
